Structures are written as SMILES. Non-standard residues stand in square brackets, D forms with d. Residues, ends and D or L forms follow the SMILES beside them. *: point of attachment. Npys = O=[N+]([O-])c1cccnc1S*; Leu(ol) = CC(C)C[C@H](N)CO; Mpa = O=C(O)CCS

Broadly, the melting point is the temperature, or range, at which the solid turns liquid. Consider `COc1ccc2[nH]c(-c3ccccc3)cc2c1`, for which the melting point is 148 to 149 °C.

With `COC(=O)C1Cc2c([nH]c3ccccc23)CN1` (configuration not stated), the melting point was in the range of 164 to 165 °C.

With `O=C1CCC(=O)N1CC(O)COc1ccccc1` (configuration not stated), the melting point was 130 °C.

Compound `O=c1ccoc(C(O)c2ccccc2F)c1OCc1ccccc1` (configuration not stated) yielded a melting point of 116 °C.

`CCCCCCCCCCCCCCCNC(=O)OCC(CO)OC` (configuration not stated) showed a melting point of 42.5 to 43 °C.

Consider `COc1cc(OC)cc(N2Cc3cnc(S(C)=O)nc3NC2=O)c1` (configuration not stated), for which the melting point is 220 to 222 °C.

`O=C1CCc2cc3ccccc3n2C1`: the melting point was 126 to 128 °C.

The compound `Cc1c(C(=O)c2cnn(C(C)(C)C)c2O)ccc(S(C)(=O)=O)c1-c1ccc(S(C)(=O)=O)cc1` registered a melting point of 187 to 188 °C.

`C#CCN(Cc1cc2c(=O)[nH]c(COC(C)=O)nc2cc1Cl)c1ccc(C(=O)OC(C)(C)C)cc1` returned a melting point of 219 to 220 °C.

`Cc1ccc(C[C@@H]2CN(C(=O)/C=C/c3ccc(C(F)(F)F)cc3)CCN2C(=O)c2cc(C(F)(F)F)cc(C(F)(F)F)c2)cc1C` displayed a melting point of 74 to 76 °C.

As to `NS(=O)(=O)c1ccc(S(=O)(=O)CC(O)CO)cc1` (configuration not stated), the melting point lay in the range of 140 to 147 °C.

In turn, `N#CC(N=Nc1cc(S(=O)(=O)Cl)ccc1OC(=O)c1ccccc1)=C(OC(=O)c1ccccc1)c1ccccc1` had a melting point of 153 to 155 °C.

On to `O=C(O)Cc1ccc(OCc2ccc3ccccc3n2)c(-n2cccc2)c1`, for which the melting point is 173 °C.

In turn, `CCOC(=O)C(Cl)=Cc1cc(NC(=O)C2=C(C(N)=O)CCCC2)ccc1Cl` came in with a melting point of 185 to 186 °C.

In the case of `Cc1cccc2c1C(=O)C([N+](=O)[O-])C2=O` (configuration not stated), the melting point lay in the range of 108 to 109 °C.

In turn, `CC12CC(=O)C3C(CCC4CC(O)CCC43C)C1CCC2C(=O)CCN1C(=O)c2ccccc2C1=O` (configuration not stated) had a melting point of 187 to 189 °C.

Turning to `Fc1ccc(-c2ccn(C3CN4CCC3CC4)c2-c2ccncc2)cc1` (configuration not stated), the melting point is 229 to 230 °C.

In turn, `N#Cc1nc2ccccc2n(-c2ccc(Cl)cc2)c1=O` gave a melting point of 232 to 235 °C.

In the case of `COC(=S)c1cccc2nc(C)n(Cc3ccc(-c4ccccc4-c4nc(=O)o[nH]4)cc3)c12`, the melting point is 231 to 232 °C.

Regarding `CCCc1c(OCCCCc2ccc3c(Cl)c(OC)c(OC)c(Cl)c3c2)ccc(C(=O)OCc2ccccc2)c1O`, the melting point lay in the range of 66 to 68 °C.

Compound `Cc1cc(C(=O)C(=O)O)ccc1OCCOc1ccc2ccccc2c1` displayed a melting point of 167 to 169 °C.

Consider `CCCCCCC(=O)c1ccc2occc2c1`, for which the melting point was in the range of 64 to 67 °C.

Compound `CCOC(=O)/C=C1/CO[C@](C)([C@H]2CC[C@H]3[C@@H](O[Si](C)(C)C(C)(C)C)CCC[C@@]32C)C1` showed a melting point of 101 °C.

In the case of `O=[N+]([O-])c1cccc(CNc2nnn[nH]2)c1`, the melting point was in the range of 208 to 210 °C.

As for `CCOC(=O)c1nnc(-c2cc3cc(Oc4ccc(S(C)(=O)=O)cc4)cc(OCc4ccccc4)c3[nH]2)s1`, the melting point is 194 to 195 °C.

Consider `Cc1ccc(S(C)(=O)=O)cc1-c1n[nH]c2nc(Oc3ccc(F)cc3F)ncc12`, for which the melting point lay in the range of 133 to 135 °C.

The compound `COc1cc(CN2C(=O)C3(COc4cc5c(cc43)OCCO5)c3ccccc32)ccc1F` (configuration not stated) registered a melting point of 161 to 163 °C.

For the compound `O=C1CCC(c2ccccc2)(c2ccccc2)C2CN(C(Cc3ccccc3)=NCCCc3ccccc3)CC12` (configuration not stated), the melting point is 144 °C.

Regarding `COc1ccc(N2CCN(c3c(C)c(C)c4c(c3C)C(c3ccoc3)C(C)(C)O4)CC2)cc1` (configuration not stated), the melting point is 110 to 113 °C.

In turn, `Cn1c(=O)ccc2cc(COc3cccc(C4(C)CCOCC4)c3)ccc21` displayed a melting point of 107 to 108 °C.

`OC(c1ncc[nH]1)(c1ccc(Cl)cc1Cl)c1ccc(Cl)cc1Cl` displayed a melting point of 193 °C.

Compound `COc1ccc2[nH]c(SCc3cc(N)c(Br)cn3)nc2c1` had a melting point of 183 to 184 °C.

The compound `CCNc1nc(NCc2ccco2)nc(Nc2ccc(O)cc2)n1` came in with a melting point of 76 to 78 °C.

As to `O=Cc1c(Cl)cc(Cl)cc1-c1ccc(F)cc1`, the melting point fell in the range of 73 to 74 °C.

In turn, `COc1ccc2[nH]c(S(=O)(=O)c3ccc(=O)[nH]n3)cc2c1` had a melting point of over 250 °C.

As for `Cn1c(C(F)(F)F)cc(Cl)c(-c2ccc(Cl)c(NS(C)(=O)=O)c2)c1=O`, the melting point was in the range of 161 to 163 °C.

For `CC(=O)Nc1ccc(C(=O)O)cc1OCCO`, the melting point is 208 °C.

`CCOC(=O)C1CCCN2CCC3c4cc(Cl)ccc4N(N)C3C12` (configuration not stated) had a melting point of 172 to 175 °C.

With `CCSc1cc(C)nc(SCC)c1NC(=O)CCCSc1nc2ccccc2o1`, the melting point lay within 123 to 125 °C.

Compound `COc1ccc2c(Cc3c(Cl)cncc3Cl)nnc(N3CCOCC3)c2c1` returned a melting point of 179 to 180 °C.

`CCC(=CC(CNC(=O)c1cccnc1Cl)=NO)C(C)[N+](=O)[O-]` (configuration not stated) displayed a melting point of 131 to 136 °C.

The compound `CCCCCCCCCCCCOc1ccc(C(=O)O)c(O)c1` showed a melting point of 98 to 100 °C.

In the case of `Cc1nc(C(O)C2CCc3c(C)c4ccccc4n3C2=O)c[nH]1` (configuration not stated), the melting point was 210 to 211 °C.

`Cc1cccc(-c2nc3ccccn3c2-c2ccnc(-c3ccc(CN4CCOCC4)cc3)c2)n1` gave a melting point of 156 °C.

`O=C(N[C@H](Cc1ccc(C(F)(F)F)cc1)[C@@H](O)c1ccc(F)cc1)C1CCCCC1` (racemic) returned a melting point of 203 to 204 °C.

In turn, `CN(Cc1ccc(CCn2cnc3cc(-c4ccc(Cl)cc4)sc3c2=O)cc1)C(=O)OC(C)(C)C` came in with a melting point of 206 to 209 °C.

For `CC(C)C[C@@H](CO)NC(=O)[C@H](Cc1c[nH]cn1)NC(=O)[C@H](Cc1ccccc1)NC(=O)CCSSc1ncccc1[N+](=O)[O-]` ([Mpa](Npys)FH[Leu(ol)]), the melting point fell in the range of 109 to 112 °C.

Consider `CCNC(=O)Nc1nc2nc(NCCN(CC)CC)ncc2cc1-c1c(Cl)cccc1Cl`, for which the melting point fell in the range of 86.5 to 89.5 °C.

The compound `O=C(O)C1C=CCn2c(=O)n(CCS)c(=O)n21` (configuration not stated) registered a melting point of 156 to 158 °C.

As for `O=C(C1CCCCC1)N1CC(=O)N(CCc2ccccc2)C(O)C1` (configuration not stated), the melting point was determined as 134 °C.

Turning to `CCCCC#CCCOc1ccc(C=O)cc1OC`, the melting point lay within 64.5 to 65.5 °C.

Consider `CC(C)(C)OC(=O)c1ncn2c1[C@@H]1CCCN1C(=O)c1c-2cccc1C(F)(F)F`, for which the melting point lay in the range of 201 to 203 °C.

Consider `CC(=O)c1ccc(Cc2c(Cl)cc(N)cc2Cl)cc1`, for which the melting point fell in the range of 97 to 98 °C.

On to `NC(=NO)c1ccc(-c2ccc(N)cc2)o1`, for which the melting point is 180 to 183 °C.

The compound `Cn1nnnc1-c1cnc2cc(F)c(F)cc2c1O` had a melting point of over 300 °C.

Regarding `c1cnn(-c2cc(-n3cccn3)ncn2)c1`, the melting point was 133 to 134 °C.

Regarding `COc1cc(COc2nn(-c3ccccc3)cc2C=O)ccc1OCc1csc(N2CCCCC2)n1`, the melting point is 123 to 124 °C.

`CCCSc1nc2cc(C)c(C)cc2[nH]1`: the melting point lay in the range of 122 to 123 °C.

The compound `Cn1cc(CN2CCCNC2=C[N+](=O)[O-])cn1` registered a melting point of 186 to 190 °C.

On to `CC(C)Oc1ccc(C=O)cc1OCCN1C(=O)c2ccccc2C1=O`, for which the melting point is 110 °C.

The compound `COC(=O)C=CN1c2ccccc2Sc2nccnc21` displayed a melting point of 165 to 169 °C.

For `COc1cc(P(c2ccccc2)c2ccccc2)c(Br)c(OC)n1`, the melting point lay in the range of 150 to 151 °C.

The values are drawn from a melting point compilation (Tetko et al.; mined from patent text by program, amines drawn as free bases though some values may be those of a salt).
